Experimental data published in PubChem BioAssay (NCI).
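Following 48 hours of exposure in 96-well plates, responses at five concentrations were used to interpolate endpoints linearly. TGI is the concentration that stops growth completely.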

How the values were obtained:
Experiment in all cases: growth of human tumour cells (NCI), 48 h
[1] = tested on: 786-0 renal
[2] = tested on: A498 renal
[3] = tested on: A549 NSCLC
[4] = tested on: ACHN renal
[5] = tested on: CAKI-1 renal
[6] = tested on: CCRF-CEM leukemia
[7] = tested on: COLO 205 colon
[8] = tested on: DU-145 prostate
[9] = tested on: EKVX NSCLC
[10] = tested on: HCC-2998 colon
[11] = tested on: HCT-116 colon
[12] = tested on: HCT-15 colon
[13] = tested on: HL-60(TB) leukemia
[14] = tested on: HOP-62 NSCLC
[15] = tested on: HOP-92 NSCLC
[16] = tested on: HS 578T breast
[17] = tested on: HT29 colon
[18] = tested on: IGROV1 ovarian
[19] = tested on: KM12 colon
[20] = tested on: LOX IMVI melanoma
[21] = tested on: M14 melanoma
[22] = tested on: MALME-3M melanoma
[23] = tested on: MCF7 breast
[24] = tested on: MDA-MB-231 breast
[25] = tested on: MDA-MB-435
[26] = tested on: MDA-N
[27] = tested on: MOLT-4 leukemia
[28] = tested on: NCI-H226 lung
[29] = tested on: NCI-H23 lung
[30] = tested on: NCI-H460 lung
[31] = tested on: NCI-H522 lung
[32] = tested on: NCI/ADR-RES ovarian
[33] = tested on: OVCAR-3 ovarian
[34] = tested on: OVCAR-4 ovarian
[35] = tested on: OVCAR-5 ovarian
[36] = tested on: OVCAR-8 ovarian
[37] = tested on: PC-3 prostate
[38] = tested on: RXF 393 renal
[39] = tested on: SF-268 CNS
[40] = tested on: SF-295 CNS
[41] = tested on: SF-539 CNS
[42] = tested on: SK-MEL-28 melanoma
[43] = tested on: SK-MEL-5 melanoma
[44] = tested on: SK-OV-3 ovarian
[45] = tested on: SN12C renal
[46] = tested on: SNB-19 CNS
[47] = tested on: SR leukemia
[48] = tested on: T-47D breast
[49] = tested on: TK-10 renal
[50] = tested on: U251 CNS
[51] = tested on: UACC-257 melanoma
[52] = tested on: UACC-62 melanoma
[53] = tested on: UO-31 renal

O=[N+]([O-])/C(Cl)=C(\Sc1ccccc1)C(Cl)=C(Cl)Cl
TGI [1]: 1070 nM
TGI [2]: 3.1 µM
TGI [3]: 1530 nM
TGI [4]: 3.07 µM
TGI [5]: 3.88 µM
TGI [6]: 667 nM
TGI [7]: 608 nM
TGI [8]: 3.08 µM
TGI [9]: 3.9 µM
TGI [10]: 3.84 µM
TGI [11]: 278 nM
TGI [12]: 1500 nM
TGI [13]: 515 nM
TGI [14]: 3.68 µM
TGI [15]: 3.4 µM
TGI [16]: 1800 nM
TGI [17]: 1800 nM
TGI [18]: 2620 nM
TGI [19]: 3.21 µM
TGI [20]: 970 nM
TGI [21]: 345 nM
TGI [22]: 1970 nM
TGI [23]: 1100 nM
TGI [24]: 628 nM
TGI [25]: 453 nM
TGI [26]: 761 nM
TGI [27]: 1580 nM
TGI [28]: 4.47 µM
TGI [29]: 1870 nM
TGI [30]: 3.22 µM
TGI [31]: 802 nM
TGI [32]: 551 nM
TGI [33]: 2850 nM
TGI [34]: 3.65 µM
TGI [35]: 3.66 µM
TGI [36]: 351 nM
TGI [37]: 4.12 µM
TGI [38]: 2600 nM
TGI [39]: 3.05 µM
TGI [40]: 8.92 µM
TGI [41]: 2980 nM
TGI [42]: 2760 nM
TGI [43]: 1720 nM
TGI [44]: 13.3 µM
TGI [45]: 1510 nM
TGI [46]: 4.26 µM
TGI [47]: 734 nM
TGI [48]: 4.88 µM
TGI [49]: 3.21 µM
TGI [50]: 3.69 µM
TGI [51]: 994 nM
TGI [52]: 1980 nM
TGI [53]: 654 nM
